27 compounds from EP0444482B1, “Oxetanones” (F. HOFFMANN-LA ROCHE AG, priority 1990, dated 1991) can be followed below.

SMILES strings stand for the structures.

The first series deals with T1, Schweinepankreaslipase (Sus scrofa, UniProt P00591).
T1 sequence (P00591 1-450): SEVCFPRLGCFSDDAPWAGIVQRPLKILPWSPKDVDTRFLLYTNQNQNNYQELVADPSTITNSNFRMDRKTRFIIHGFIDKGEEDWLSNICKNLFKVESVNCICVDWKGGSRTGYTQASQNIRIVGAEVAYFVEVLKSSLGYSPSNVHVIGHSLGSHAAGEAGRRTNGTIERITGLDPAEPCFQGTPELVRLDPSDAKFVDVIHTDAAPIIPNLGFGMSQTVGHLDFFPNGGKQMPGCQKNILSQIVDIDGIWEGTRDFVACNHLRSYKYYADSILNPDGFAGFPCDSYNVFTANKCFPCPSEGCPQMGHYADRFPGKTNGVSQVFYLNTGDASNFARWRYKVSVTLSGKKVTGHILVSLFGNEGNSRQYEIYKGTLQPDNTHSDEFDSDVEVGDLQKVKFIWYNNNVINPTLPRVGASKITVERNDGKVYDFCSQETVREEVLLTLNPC
The experiment in a line: Inhibition of pancreatic lipase (titrimetric measurement of oleic acid released from triolein). The format is biochemical, Schwein. To be noted: substrate triolein emulsion, pH 8, NaOH consumption over 10 min, 1-3 µg lipase; concentration giving half-maximal inhibition of lipase activity; read-out: IC₅₀ (converted). The method, then:
Die Hemmung der Pankreaslipase durch die Oxetanone der Formel I kann experimentell gezeigt werden, indem man die bei der Spaltung von Triolein durch Schweinepankreaslipase freigesetzte Oelsäure titrimetrisch erfasst. Zu einer Emulsion, welche 1 mM Taurodeoxycholat, 9 mM Taurocholat, 0,1 mM Cholesterin, 1 mM Eilezithin, 15 mg/ml BSA, 2 mM Tris-HCl, 100 mM Natriumchlorid, 1 mM Calciumchlorid und das Substrat Triolein enthält, gibt man die in Aethanol oder Dimethylsulfoxid (10% des Emulsionsvolumens) gelöste Verbindung der Formel I und startet die Reaktion durch Zugabe von 1-3 µg Schweinepankreaslipase. Das pH wird während der Reaktion durch Zugabe von Natronlauge bei 8 gehalten. Aus dem während 10 Minuten ermittelten Verbrauch an Natronlauge wird die IC₅₀ berechnet. Die IC₅₀ ist diejenige Konzentration, bei der die Lipaseaktivität halbmaximal gehemmt wird. Die nachfolgende Tabelle enthält die für die Verbindungen der Formel I ermittelten IC₅₀-Werte in µg/ml.
Turning to `CCCCCCCCCCCCCCCCC[C@@H](C[C@@H]1OC(=O)[C@H]1CC)OC(=O)C1(C(N)=O)CCCC1` [Beispiel 43, (S)-1-[[(2S,3S)-3-Aethyl-4-oxo-2-oxetanyl]methyl]octadecyl-1-carbamoylcyclopentancarboxylat], the IC50 is 0.23 µM. As for `CCCCCCCCCCC[C@@H](C[C@@H]1OC(=O)[C@H]1CCCCCC)OC(=O)C(CCC)C(N)=O` (mixture of isomers) [Beispiel 2d, (S)-1-[[(2S,3S)-3-Hexyl-4-oxo-2-oxetanyl]methyl]-dodecyl-(RS) -2-carbamoylvalerat], the IC50 was 0.249 µM. With `CCCCCCCCCCCCCCCCC[C@@H](C[C@@H]1OC(=O)[C@H]1CC)OC(=O)C1(C(N)=O)OCCO1` [Beispiel 2f, (S)-1-[[(2S,3S)-3-Aethyl-4-oxo-2-oxetanyl]-methyl]octadecyl-2-carbamoyl-1,3-dioxolan-2-carboxylat], the IC50 was 0.894 µM. Same read-out and setting: under `CCCCCCCCCCC[C@@H](C[C@@H]1OC(=O)[C@H]1CCCCCC)OC(=O)CC(=O)NC` [Beispiel 3e, (S)-1-[[(2S,3S)-3-Hexyl-4-oxo-2-oxetanyl]methyl]dodecyl -N-methylmalonamat] stands 3.11 µM.

Consider `CCCCCCCCCCCCCCCCC[C@@H](C[C@@H]1OC(=O)[C@H]1CC)OC(=O)CC(=O)NC` [Beispiel 10c, (S)-1-[[(2S,3S)-3-Aethyl-4-oxo-2-oxetanyl]methyl]octadecyl-N-methylmalonamat], for which the IC50 was 0.208 µM. Still for that read-out and setting: the figure for `CCCCCCCCCCCCCCCCC[C@@H](C[C@@H]1OC(=O)[C@H]1CC)OC(=O)C(C)C(N)=O` (stereo partly drawn) [Beispiel 10e, (S)-1-[[(2S,3S)-3-Aethyl-4-oxo-2-oxetanyl]methyl]octadecyl-(RS)-2-methylmalonamat] is 0.056 µM; for `CCCCC/C=C\C/C=C\CCCCCCC[C@@H](C[C@@H]1OC(=O)[C@H]1CC)OC(=O)C(C(N)=O)C(C)C` (single isomer, unassigned) [Beispiel 2g1] it is 0.103 µM; for `CCCCCCCCCCCCCCCCC[C@@H](C[C@@H]1OC(=O)[C@H]1CC)OC(=O)CC(=O)N(C)C` [Beispiel 10d, (S)-1-[[(2S,3S)-3-Aethyl-4-oxo-2-oxetanyl]methyl]octadecyl-N,N-dimethylmalonamat] it is 0.948 µM.

For `CCCCCCCCCCCCCCCCC[C@@H](C[C@@H]1OC(=O)[C@H]1CC)OC(=O)C(C(N)=O)C(C)C` (single isomer, unassigned) [Beispiel 1a], the IC50 was 0.0628 µM.

`CCCCCCCCCCCCCCCCC[C@@H](C[C@@H]1OC(=O)[C@H]1CC)OC(=O)C(C(N)=O)C(C)C` (single isomer, unassigned) [Beispiel 1b]: the IC50 was 0.049 µM. Still for that read-out and setting: under `CCCCCCCCCCC[C@@H](C[C@H]1OC(=O)[C@@H]1Cc1ccccc1)OC(=O)C(C(N)=O)C(C)C` (single isomer, unassigned) [Beispiel 7b] stands 0.162 µM; under `CCCCCCCCCCC[C@@H](C[C@@H]1OC(=O)[C@H]1CCCCCC)OC(=O)C(CC)(CC)C(N)=O` [Beispiel 3l, (S)-1-[[(2S,3S)-3-Hexyl-4-oxo-2-oxetanyl]methyl]dodecyl-2,2-diäthylmalonamat], 1.57 µM. As to `CCCCCCCCCCCCCCCCC[C@@H](C[C@@H]1OC(=O)[C@H]1CC)OC(=O)CC(N)=O` [Beispiel 10b, (S)-1-[[(2S,3S)-3-Aethyl-4-oxo-2-oxetanyl]methyl]octadecylmalonamat], the IC50 was 0.0898 µM. Same read-out and setting: the figure for `CCCCCCCCCCC[C@@H](C[C@@H]1OC(=O)[C@H]1CCCCCC)OC(=O)C(Cc1ccccc1)C(N)=O` (stereo partly drawn) [Beispiel 45, (S)-1-[[(2S,3S)-3-Hexyl-4-oxo-2-oxetanyl]methyl]dodecyl-(RS)-2-benzylmalonomat] is 0.0887 µM. On the same count and under the same terms, under `CCCCCCCCCCC[C@@H](C[C@@H]1OC(=O)[C@H]1CCCCCC)OC(=O)C(C(N)=O)C(C)C` (single isomer, unassigned) [Beispiel 2b] stands 0.131 µM; under `CCCCCCCCCCC[C@@H](C[C@@H]1OC(=O)[C@H]1CCCCCC)OC(=O)C1(C(N)=O)CCCCC1` [Beispiel 3g, (S)-1-[[(2S,3S)-3-Hexyl-4-oxo-2-oxetanyl]methyl]dodecyl-1-carbamoylcydohexancarboxylat], 0.579 µM; under `CCCCCCCCCCCCCCCCC[C@@H](C[C@@H]1OC(=O)[C@H]1CC)OC(=O)[C@H]1CCC(=O)N1` [Beispiel 78c, 5-Oxo-D-prolin-(S)-1-[[(2S,3S)-3-äthyl-4-oxo-2-oxetanyl]methyl]octadecyl-ester], 0.567 µM. Still for that read-out and setting: under `CCCCCCCCCCCCCCCCC[C@@H](C[C@@H]1OC(=O)[C@H]1CC)OC(=O)[C@@H]1CCC(=O)N1` [Beispiel 78d, 5-Oxo-L-prolin-(S)-1-[[(2S,3S)-3-äthyl-4-oxetanyl]methyl]octadecyl-ester] stands 0.103 µM.

Turning to `CCCCCCCCCCC[C@@H](CC1OC(=O)C1SCCCCC)OC(=O)C(C(N)=O)C(C)C` (stereo partly drawn) [Beispiel 6b, (S)-1-[[(2S,3S oder 2R,3R)-4-Oxo-3-pentylthio-2-oxetanyl]methyl]-dodecyl-[S:R oder R:S(2:1)]-2-isopropylmalonamat], the IC50 is 0.112 µM. On the same count and under the same terms, under `CCCCCCCCCCC[C@@H](C[C@@H]1OC(=O)[C@H]1CCCCCC)OC(=O)C(CCCC)C(N)=O` (mixture of isomers) [Beispiel 3k, (S)-1-[[(2S,3S)-3-Hexyl-4-oxo-2-oxetanyl]methyl]dodecyl-(RS)-2-butylmalonamat] stands 0.242 µM; under `CCCCCCCCCCCCCCCCC[C@@H](C[C@@H]1OC(=O)[C@H]1CC)OC(=O)C(CCC)C(N)=O` (stereo partly drawn) [Beispiel 2e, (S)-1-[[(2S,3S)-3-Aethyl-4-oxo-2-oxetanyl]-methyl]octadecyl-(RS)-2-carbamoylvalerat], 0.1 µM. The same measure, in the same setting: the figure for `CCCCCCCCCCC[C@@H](C[C@@H]1OC(=O)[C@H]1CCCCCC)OC(=O)C(CC(C)C)C(N)=O` (mixture of isomers) [Beispiel 3f, (S)-1-[[(2S,3S)-3-Hexyl-4-oxo-2-oxetanyl]methyl]dodecyl-(RS)-2-carbamoyl-4-methylvalerat] is 0.167 µM. Same read-out and setting: the figure for `CCCCCCCCCCC[C@@H](C[C@@H]1OC(=O)[C@H]1CCCCCC)OC(=O)CC(N)=O` [Beispiel 3c, 2-Carbamoylessigsäure-(S)-1-[[(2S,3S)-3-hexyl-4-oxo-2-oxetanyl]methyl]dodecylester] is 0.887 µM; for `CCCCCCCCCCC[C@@H](C[C@@H]1OC(=O)[C@H]1CCCCCC)OC(=O)C(CC)C(N)=O` (stereo partly drawn) [Beispiel 3j, (S)-1-[[(2S,3S)-3-Hexyl-4-oxo-2-oxetanyl]methyl]dodecyl-(RS)-2-äthylmalonamat] it is 0.342 µM. With `CCCCCCCCCCC[C@@H](C[C@@H]1OC(=O)[C@H]1CCCCCC)OC(=O)CCSCCC(N)=O` [Beispiel 51, (S)-1-[[(2S,3S)-3-Hexyl-4-oxo-2-oxetanyl]methyl]dodecyl-3-[(2-carbamoyläthyl)thio]propionat], the IC50 is 0.701 µM. Regarding `CCCCCCCCCCCCCCCCC[C@@H](C[C@@H]1OC(=O)[C@H]1CC)OC(=O)C(C(N)=O)C(C)(C)C` (single isomer, unassigned) [Beispiel 37], the IC50 was 0.0649 µM. `CCCCC/C=C\C/C=C\CCCCCCC[C@@H](C[C@@H]1OC(=O)[C@H]1CC)OC(=O)C(C(N)=O)C(C)C` (single isomer, unassigned) [Beispiel 2g2]: the IC50 is 0.0257 µM.

System in the next series: not listed separately
Kind of series: Acute toxicity after a single oral administration. The following applies: mouse, in vivo, mice, read-out: akute Toxizität. The procedure:
Die akute Toxizität (nach einmaliger oraler Verabreichung an Mäusen) beträgt mehr als 5000 mg/kg für die Produkte der Beispiele 3d, 3h, 3i, 3l, 4a und 10a, b, e und f.
For the compound `CCCCCCCCCCCCCCCCC[C@@H](C[C@@H]1OC(=O)[C@H]1CC)OC(=O)C(C)C(N)=O` (stereo partly drawn) [Beispiel 10e, (S)-1-[[(2S,3S)-3-Aethyl-4-oxo-2-oxetanyl]methyl]octadecyl-(RS)-2-methylmalonamat], the LD50 was > 5000 mg/kg. On the same count and under the same terms, the figure for `CCCCCCCCCCC[C@@H](C[C@@H]1OC(=O)[C@H]1CCCCCC)OC(=O)C(CC)(CC)C(N)=O` [Beispiel 3l, (S)-1-[[(2S,3S)-3-Hexyl-4-oxo-2-oxetanyl]methyl]dodecyl-2,2-diäthylmalonamat] is > 5000 mg/kg; for `CCCCCCCCCCCCCCCCC[C@@H](C[C@@H]1OC(=O)[C@H]1CC)OC(=O)CC(N)=O` [Beispiel 10b, (S)-1-[[(2S,3S)-3-Aethyl-4-oxo-2-oxetanyl]methyl]octadecylmalonamat] it is > 5000 mg/kg.
